Source: US4663326A, “Pyrazolo[4,3-d]pyrimidine-5,7-(4H,6H)dione or -5-thione-7-one analogs” (Warner-Lambert Company, priority 1985, dated 1987)

Legend:
[1] = system: pentobarbital-anesthetized dog; assay: In vivo myocardial inotropic activity in anesthetized dog (CVAD); set-up: species or system dog (adult mongrel); conditions: for Percent Change Heart Rate / Percent Change Myocardial Contractility / Percent Change Blood Pressure (second value) / Percent Change Blood Pressure (first value): intravenous; for Percent Change Blood Pressure (second value): value after the slash; for Percent Change Blood Pressure (first value): value before the slash
Experimental: This test procedure is described in the following paragraphs.
This screen consists of determining the effects of increasing intravenous doses of compound on mycardial contractility (dP/dt max of left ventricular blood pressure), heart rate, and aortic blood pressure of the pentobarbital-anesthetized dog.
Adult mongrel dogs of either sex are anesthetized with pentobarbital, 35 mg/kg, IV, and are subsequently maintained under anesthesia with a continuous infusion of pentobarbital, 3.5 mg/kg/hour. The trachea is intubated but the animals are permitted to breathe spontaneously. A cannula is inserted into the femoral vein for administrating test agents. A Millar catheter tip pressure transducer or a fluid filled catheter is inserted into the ascending aorta via the femoral artery for measuring aortic blood pressure. A Millar catheter tip pressure transducer is passed into the left ventricle via the left carotid artery for measuring left ventricular blood pressure. Needle electrodes are placed subcutaneously for recording a lead II electrocardiogram (ECG).
Left ventricular and aortic blood pressures are recorded on a strip chart recorder. Heart rate, using a biotachometer triggered from the R wave of the ECG, and the first derivative of left ventricular blood pressure (dP/dt), obtained with a differentiator amplifier coupled to the corresponding pressure amplifier, are also recorded. A period of at least 30 minutes is utilized to obtain control data prior to administration of test compound.
Depending on solubility, the compounds are dissolved in 0.9% saline solution or in dilute HCl or NaOH (0.1 to 1.0N) and are diluted to volume with normal saline. Ethanol or dimethylacetamide can be used as solvents if adequate dilutions can be made. Appropriate vehicle controls are administered when needed.
Each dose of the test compound is administered in a volume of […] over a period of one minute.

[2] = system: histamine; assay: Bronchodilator test (BCA), histamine spasmogen, guinea pigs; type: in vivo, Hartley Guinea Pigs; set-up: key: Active; conditions: 50 mg/kg
Description: The compounds of this invention may be determined to have antiallergy activity by a standard laboratory means employing the bronchodilator test (BCA) readily accepted as a standard for antiallergy activity, which is described in Siegmund, H. O., et al (J. Pharmacol. and Exptl., 90:254, 1949 and Herxheimer, H., J. Physiol., 117: 252-255, 1952). Thus, antiallergy activity was found for compounds of this invention by this BCA test using Hartley Guinea Pigs by the procedures as described below.
Naive (BCA) pigs are exposed to spasmogen for ten minutes by means of a De Vilbiss number 40 nebulizer positioned at the back of a closed, six unit plexiglas chamger (19×12.5×9"). Air flow is adjusted to give a pressure of 10 lbs/in; six animals per treatment are averaged, and the mean value for compound treated animals is compared to that for animals treated with vehicle. […]
The spasmogen may be acetylcholine chloride (0.3%), histamine (0.1%), methacholine chloride (Mecholyl) (0.1%) or serotonin creatinine sulfate. Each nebulizer dispenses 0.2 cc/minute.

[3] = system: Type 3 Phosphodiesterase; assay: PDE inhibition, Type 3 phosphodiesterase, smooth muscle (bovine coronary arteries); type: biochemical; conditions: 1 × 10^-5 M
Description: The method of Thompson, et al (Thompson, W. J., Terasaki, W. L., Epstein, P. M., Strada, S. J., Adv. Cyclic Nucleotide Res., 10:69-92, 1979), with minor modifications, was used to isolate phosphodiesterases from vascular smooth muscle. Bovine coronary arteries (right, anterior descending, and left circumflex arteries) from hearts obtained from a local slaughterhouse were used for these studies. Arteries from two hearts were used for each isolation. Hearts were kept on ice and the arteries were dissected within two hours after the animals were sacrificed. After removing all fat and connective tissue, the arteries were everted, cut into cubes with a single edge razor blade and homogenized with a Brinkman Polytron three times at a rheostat setting of 10.0 in four volumes of the PDE isolation buffer (10 mM Tris-HCl/pH 7.5, 2 mM MgCl2, and 1 mM dithiothreitol). The resulting homogenate was sonicated (30 sec/ml homogenate) and then centrifuged at 30,000×g for 20 minutes. This and all subsequent procedures were performed at 4° C. […]
Phosphodiesterase activity was measured as described previously (Weishaar, P. E., Quade, M., Boyd, D., Schenden, J., Mark, S. S., Kaplan, H. R., Drug Devel. Res., 3:517-534, 1983), in a reaction medium containing 40 mM Tris-HCl (pH 8.0), 5 mM MgCl and 4 mM 2-mercaptoethanol. […]

[4] = intravenously at about 0.01 to 0.31 mg/kg

Row | % Inhibition of 3H-cAMP Hydrolysis, Type 3 Phosphodiesterase [3] | Structure (SMILES) | Percent Change Heart Rate ([1]; 0.10 mg/kg) [%] | Percent Change Myocardial Contractility ([1]; 0.10 mg/kg) [%] | Percent Change Blood Pressure (second value) ([1]; 0.10 mg/kg) [%] | Percent Change Blood Pressure (first value) ([1]; 0.10 mg/kg) [%] | Percent Change Heart Rate ([1]; 1.00 mg/kg) [%] | Percent Change Myocardial Contractility ([1]; 1.00 mg/kg) [%] | Percent Change Blood Pressure (second value) ([1]; 1.00 mg/kg) [%] | Percent Change Blood Pressure (first value) ([1]; 1.00 mg/kg) [%] | Percent Change Heart Rate ([1]; 3.10 mg/kg) [%] | Percent Change Myocardial Contractility ([1]; 3.10 mg/kg) [%] | Percent Change Blood Pressure (second value) ([1]; 3.10 mg/kg) [%] | Percent Change Blood Pressure (first value) ([1]; 3.10 mg/kg) [%] | other results
1 | N (0-20% inhibition at 1 × 10^-5 M) | Cc1nn(C)c2c(=O)[nH]c(=O)[nH]c12 [Example 1, 1,3-Dimethylpyrazolo[4,3-d]pyrimidine-5,7-(4H, 6H)dione] | 1 | 5 | 1 | 1 | 5 | 41 | -2 | 0 | 15 | 90 | -4 | -2 | Percent Change Heart Rate ([1]; 0.31 mg/kg): 1%; Percent Change Myocardial Contractility ([1]; 0.31 mg/kg): 13%; Percent Change Blood Pressure (second value) ([1]; 0.31 mg/kg): -1%; Percent Change Blood Pressure (first value) ([1]; 0.31 mg/kg): 1%; blood pressure (in words) [1, 4]: moderate reduction in blood pressure; cardiac contractility (in words) [1, 4]: dose related significant increases in cardiac contractility; heart rate (in words) [1, 4]: only low or minimal changes in heart rate; BCA Results, Ratings [2]: A
2 | B (36-55% inhibition at 1 × 10^-5 M) | CCn1nc(C)c2[nH]c(=S)[nH]c(=O)c21 [Example 2, 1-Ethyl-1,4,5,6-tetrahydro-3-methyl-pyrazolo[4,3-d]pyrimidine-5-thione-7-on] | 3 | 5 | -1 | -1 | -1 | 13 | -4 | -2 | 5 | 45 | -9 | -6 | Percent Change Heart Rate ([1]; 0.30 mg/kg): 2%; Percent Change Myocardial Contractility ([1]; 0.30 mg/kg): 8%; Percent Change Blood Pressure (second value) ([1]; 0.30 mg/kg): -4%; Percent Change Blood Pressure (first value) ([1]; 0.30 mg/kg): -3%
